# According to US20020055130A1, “Method and product for regulating apoptosis” (National Jewish Center for Immunology and Respiratory …, priority 1997, published 2002):
# Experiments:
# [1] = tested on: REF52 cells; test: MEKK-induced apoptosis, microinjected REF52 cells; assay type: cell-based
# Description: (§1) Cells were prepared for the apoptosis studies as follows. Swiss 3T3 cells and REF52 cells were transfected with an expression plasmid encoding β-Galactoctosidase (β-Gal) detection of injected cells. One set of β-Gal transfected cells were then microinjected with an expression vector encoding MEKK1 370-738 protein. Another set of β-Gal transfected cells were then microinjected with an expression vector encoding truncated BXB-Raf protein.
# (§2) A first group of transfected Swiss 3T3 cells and REF52 cells were treated with 50 μM beauvericin for 6 hours at 37° C. Beauvericin is a compound known to induce apoptosis in mammalian cells. A second group of cells were treated with a control buffer lacking beauvericin. The treated cells were then fixed in parafornaldehyde and permeabilized with saponin using protocols standard in the art. The permeabilized cells were then labelled by incubating the cells with a fluorescein-labelled anti-tubulin antibody (1:500; obtained from GIBCO, Gaithersburg, Md.) to detect cytoplasmic shrinkage or 10 μM propidium iodide (obtained from Sigma, St. Louis, Mo.) to stain DNA to detect nuclear condensation. The labelled cells were then viewed by differential fluorescent imaging using a Nikon Diaphot fluorescent microscope. […]
# [2] = tested on: Swiss 3T3 cells; test: MEKK-induced apoptosis, microinjected Swiss 3T3 cells; assay type: cell-based
# Description: as §1, §2
# [3] = tested on: HEK293 cells; test: MEKK1 staining and TdT-mediated dUTP incorporation (DNA fragmentation) in transfected cells; assay type: cell-based, Human; conditions: after 48 hr
# Description: Human embryonal kidney 293 cells (HEK293) stably expressing the EBNA-1 protein from Epstein-Barr virus (Invitrogen) were grown in Dulbecco's modified Eagle's medium (DMEM) supplemented with 100 U/ml penicillin/streptomycin and containing 10% bovine calf serum (BCS). The cells were transfected using lipofectamine (Gibco).
# Cells were grown on glass coverslips and transfected using lipofectamine. Two days after transfection, the medium was removed and the cells were fixed in 2% paraformaldehyde, 3% sucrose in phosphate buffered saline (PBS) for 10 min at room temperature. Following three washes with PBS, the cells were permeabilized for 10 min with 2% Triton-X100 in PBS. After three PBS washes, the cells were blocked with filtered cultured medium for 15 min. The coverslips were then incubated 1 hour in TdT reaction mix (200 mM potassium cacodylate, 25 mM Tris.HCl, pH 6.6, 250 μg/ml BSA, 5 mM CoCl2, 0.25 U/μl TdT [Boehringer], 10 μM biotin-dUTP [Boehringer]) at 37° C. in a humidifed atmosphere. […] Images were taken using a Leica DMRXA microscope and analyzed with the SlideBook v2.0 software (Intelligent Imaging Innovations, Denver). […]
# [4] = tested on: p38 kinase; test: p38 kinase activation, transfected HEK293 cells; assay type: cell-based, Human; conditions: transfection in HEK293 cells
# [5] = tested on: B-Raf; test: Raf activation assay (kinase-inactive MEK-1 phosphorylation), L929 cells; assay type: cell-based, murine
# Description: (§3) RafActivation Assay Cells were serum starved and challenged in the presence or absence of the appropriate cytokine or growth factors, as described above. Cells were lysed by scraping in ice cold RIPA buffer (50 mM Tris-HCl, pH 7.2, 150 mM NaCl, 0.1% SDS, 0.5% sodium deoxycholate, 1.0% Triton X-100, 10 mM sodium pyrophosphate, 25 mM β-glycerophosphate, 2 mM sodium vanadate, 2.1 µg/ml aprotinin) and the nuclei were pelletted. The supernatants were normalized for protein content and precleared with protein A Sepharose prior to immunoprecipitation with rabbit antiserum to the C terminus of C-Raf, rabbit anti-serum to A-Raf or rabbit antiserum to B-Raf (Santa Cruz Biotech., Santa Cruz, Calif.) and protein A Sepharose for 2-3 hr at 4° C. The beads were washed twice with ice cold RIPA and twice with PAN. A third of the immunoprecipitate was diluted with SDS sample buffer and used for immunoblot analysis. […] Wild-type recombinant MEK-1 was autophosphorylated in parallel as a marker. Reactions were terminated by the addition of 12.5 μl 5× SDS sample buffer, boiled, and subjected to SDS-PAGE and autoradiography.
# [6] = tested on: C-Raf; test: as above; assay type: cell-based, murine
# Description: as §3
# [7] = tested on: L929 fibroblasts; test: TNF and MEKK1COOH synergy, percentage of apoptotic cells (Lac Switch clones); assay type: cell-based, murine; conditions: control L929 cells (4.1 LAC1), presence and absence of IPTG
# From the text: Approximately 20% of control L929 cells became apoptotic upon TNF exposure either in the presence and absence of IPTG. In L929 cells expressing the MEKK1COOH domain, exposure to TNF and IPTG increased the percentage of apoptotic cells to 40%, approximately a 2-fold increase.
# [8] = tested on: p42/p44 MAPK; test: MAPK assay (EGFR662-681 peptide), L929 cells; assay type: cell-based, murine
# Description: MAPK Assay MAPK activity was measured exactly as described previously (Gardner, A. M., et al. (1994) Meth. Enzymol. 238:258-270) with the exception that MonoQ FPLC fractionation was replaced by step elution from a DEAE-Sephacel column using 0.5 M NaCl in loading buffer. The eluate was assayed in triplicate using the epidermal growth factor receptor 662-681 peptide (EGFR662-681) as a selective substrate for MAPK activity (Heasley, L. E., et al. (1994) American Journal of Physiology (Renal Fluid Electrolyte Physiol. 36) 267:F366-F373).
# [9] = tested on: JNK; test: JNK assay (solid state kinase assay with GST-Jun), L929 cells; assay type: cell-based, murine
# Description: JNK assay. JNK activity was measured using a solid state kinase assay in which glutathione S-transferase-c-Jun(1-79) (GST-JUN) cound to glutathione-Sepharose 4B beads was used to affinity pruify JNK and then JNK activity was measured in an in vitro kinase assay using the sepharose bound GST-Jun as a substrate (Hibi, M., et al. (1993) Genes & Development 7:2135-2148). Stimulated or unstimulated cells were lysed in 0.5% Nonidet P-40, 20 mM HEPES pH 7.2, 100 mM NaCl, 2 mM dithiothreitol, lmM EDTA, 1.0 mM phenylmethylsulfonylfluoride, 1 μg/ml aprotinin and the nuclei pelleted. Lysates were normalized for protein content. […] Binding to GST-Jun efficiently isolates the two major forms of JNK (p45and p55) and under the conditions used JNK isolation was linear for 10-250 μg of cell lysate. The lysates were rotated at 4° C. for 1-3 h. Beads were washed twice in lysis buffer and then twice in PAN (10 mM PIPES, pH 7.0, 100 mM NaCl, 21 μg/ml aprotinin). Kinase reactions were carried out at 30° C. for 15 min in 20 mM Hepes pH 7.2, 20 mM β-glycerophosphate, 10 mMp-nitrophenyl phosphate, 10 mM MgCl2, 1 mM dithiothreitol, 50 μm sodium vanadate, 10 μCi γ^32P-ATP 4300 Ci/mmole. The kinase reaction was linear from 0-30 min.
# [10] = tested on: L929 cells; test: TNFα-mediated apoptosis of L929 cells (neutral red assay, propidium iodide staining); assay type: cell-based, murine
# Description: Cell lines and culture. L929 cells (ATCC CCL1 were maintained in Dulbecco's modified Eagle's medium with 5% newborn claf serum and 5% bovine calf serum (BCS) supplemented with 100 ug/ml streptomycin and 100U/ml penicillin. The cells were grown in 10 cm dishes at 37° C. in 7.5% CO2. Cells were made quiescent where indicated by incubation in Dulbecco's modified Eagle's medium and 0.1% bovine serum albumin for 24 h. Recombinant murine TNFα and recombinant humanbFGF (147aa) were from R&D Systems, Minneapolis, Minn. Cells were pretreated where indicated with the MEK-1 inhibitor PD#098059 (Parke-Davis Pharmaceutical Corp. Ann Arbor, Mich.) for 1 h at 37° C. Cells were stimulated by incubation with the indicated cytokine or growth factor for various times at 37° C. […] Stimulation was stopped by rinsing the plates twice with ice cold phosphate buffered saline (PBS) and lysing the cells in the appropriate lysis buffer. Cells were scraped from the plates and nuclei were pelleted for 10 min at 14,000 RPM in a microcentrifuge.
# Neutral Red Assay Uptake of the dye neutral red was used as one measure of cell viability following cytokine or growth factor treatment (Finter, N. B. (1969) J. Gen Virol. 5:419-427). 1.5×10^4-2.5×10^5 L929 cells/well were plated in 12 well tissue culture dishes in 1.25 ml of media. Cells were treated for 15-20 hr with various concentrations of TNFα and/or bFGF. 2.5 μl of 1% neutral red was added to the wells and incubated for 2 hr at 37° C. PBS. The neutral red was extracted with 1.0 ml of 50% ethanol, 50 mM Na-citrate pH 4.2 and absorbency was measured at […].
# Propidium iodide staining Cells were plated on glass chamber slides (Nunc, Naperville, Ill.) at a concentration of 0.2-0.6×10^5 cells/ml. Ras expression was induced with 5 mM IPTG in Dulbecco's modified Eagle's medium with 0.1% BCS for 8-12 hr. Cells were exposed to TNFα (5 ng/ml) and/or bFGF (500 pg/ml) in Dulbecco's modified Eagle's medium with 0.1% BCS for 16 hr. The parental LACI expressing cell line (see below) was used as a control. Cells were washed twice in PBS, fixed in acetone:methanol (1:1) −20° C. for 5 min, air dried, washed twice in PBS, stained with 1 μg/ml propidium iodide (PI) in PBS for 20 min, washed in PBS, washed in H2O and mounted in 25% glycerol/PBS. PI fluorescence was observed using a Nikon inverted microscope equipped with epifluorescence and a […] filter. Images were analyzed using IP lab.
substance,measurement,setting,value
MEKK1 protein: MEKK1 370-738 protein expressed from a microinjected expression vector,apoptotic morphology of expressing cells,[1],underwent cytoplasmic shrinkage and nuclear condensation leading to apoptotic death
same,apoptotic morphology of expressing cells,[2],underwent cytoplasmic shrinkage and nuclear condensation leading to apoptotic death
"MEKK1: full length 196 kDa mouse MEKK1, HA-tagged, expressed by transfection",MEKK1-expressing cells apoptotic,[3],about 30%
same,p38 kinase activation,[4],did not activate the p38 kinase
TNFα,B-Raf activation,[5],does not significantly activate
same,C-Raf activation,[6],does not significantly activate
same,percentage of apoptotic cells,[7],Approximately 20%
same,concentration required to stimulate p42/p44 MAPK 2-3 fold,[8],Greater than 10 ng/ml
same,time to maximal stimulation of p42/p44 MAPK activity,[8],5 to 10 min
same,MAPK activity stimulated above basal,[8]; 1 ng/ml,20%
same,effect on bFGF stimulation of MAPK activity,[8]; L929 cells,little or no effect on bFGF stimulation of MAPK activity
same,MAPK activity,"[8]; L929 cells, TNFα 1 ng/ml where stated",only modest stimulatory effects
same,concentration giving maximal JNK activation,[9],1 ng/mL
same,time of peak JNK activity,[9],10 to 15 min
same,JNK activation,[9]; 0.1 ng/ml,greater than four-fold
same,time required to induce a similar level of L929 cell death,[10]; 1 ng/ml,24 to 48 h
same,L929 cells being apoptotic,"[10]; 10 ng/ml, 15 hr",greater than 40%
